Data taken from the supplement of paper PMC10307832.

Columns and labels:
Assay in all cases: relative viability (nuclei count vs DMSO), 5 days (fraction); higher = more cells survive
[1] = compound: CC1=CC(=NN1)NC2=CC(=NC(=N2)/C=C/C3=CC=CC=C3)N4CCN(CC4)C + Cc1nc(NC(=O)N2CCC[C@H]2C(N)=O)sc1-c1ccnc(C(C)(C)C(F)(F)F)c1 [Alpelisib] (partner 2 µM)
In short: (§1)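 One day after seeding in 1536-well plates, lung cancer cell lines were dosed by pin tool. Dosing was either single-drug or a fixed anchor-drug dose plus five library-drug doses (not always all listed) in √10 steps. After 5 days, nuclei were stained in one fix-and-stain step and counted on 4× images, and relative viability is the nuclei count of treated wells over that of vehicle wells, given as the median of duplicate plates.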

Obatoclax + Pictilisib = compound: COC1=CC(c2cc3ccccc3[nH]2)=N/C1=C\c1[nH]c(C)cc1C [Obatoclax] + CS(=O)(=O)N1CCN(Cc2cc3nc(-c4cccc5[nH]ncc45)nc(N4CCOCC4)c3s2)CC1 [Pictilisib] (partner 1 µM)
In short: as §1

Obatoclax + Decitabine = compound: COC1=CC(c2cc3ccccc3[nH]2)=N/C1=C\c1[nH]c(C)cc1C [Obatoclax] + Nc1ncn([C@H]2C[C@H](O)[C@@H](CO)O2)c(=O)n1 [Decitabine] (partner 2 µM)
In short: as §1

Obatoclax + Vorinostat = compound: COC1=CC(c2cc3ccccc3[nH]2)=N/C1=C\c1[nH]c(C)cc1C [Obatoclax] + O=C(CCCCCCC(=O)Nc1ccccc1)NO [Vorinostat] (partner 1 µM)
In short: as §1

Cell Line	relative viability ([1]; first compound 0.08 µM)	relative viability ([1]; first compound 0.253 µM)	relative viability ([1]; first compound 0.8 µM)	relative viability ([1]; first compound 2.53 µM)	relative viability ([1]; first compound 8 µM)	relative viability (Obatoclax + Pictilisib; first compound 0.01 µM)	relative viability (Obatoclax + Pictilisib; first compound 0.03162 µM)	relative viability (Obatoclax + Pictilisib; first compound 0.1 µM)	relative viability (Obatoclax + Pictilisib; first compound 0.3162 µM)	relative viability (Obatoclax + Pictilisib; first compound 1 µM)	relative viability (Obatoclax + Decitabine; first compound 0.01 µM)	relative viability (Obatoclax + Decitabine; first compound 0.03162 µM)	relative viability (Obatoclax + Decitabine; first compound 0.1 µM)	relative viability (Obatoclax + Decitabine; first compound 0.3162 µM)	relative viability (Obatoclax + Decitabine; first compound 1 µM)	relative viability (Obatoclax + Vorinostat; first compound 0.01 µM)	relative viability (Obatoclax + Vorinostat; first compound 0.03162 µM)	relative viability (Obatoclax + Vorinostat; first compound 0.1 µM)	relative viability (Obatoclax + Vorinostat; first compound 0.3162 µM)	relative viability (Obatoclax + Vorinostat; first compound 1 µM)
201T	1.04	1.08	1.01	0.931	0.793	0.679	0.648	0.741	0.678	0.687	0.814	0.731	0.868	0.857	0.92	0.954	0.834	0.968	0.959	1.06
A549	0.685	0.684	0.398	0.0413	0.0242	0.509	0.7	0.448	0.442	0.0671	0.205	0.122	–	0.282	0.309	–	–	–	–	–
A-427	1.08	1.15	1.07	0.716	0.133	0.727	0.698	0.593	0.719	0.615	0.528	0.525	0.491	0.614	0.504	0.839	0.836	0.741	0.835	0.664
ABC-1	1.01	1.09	1.02	0.855	0.22	0.72	0.929	0.737	0.468	0.26	1.38	1.31	0.999	1.17	1.07	1.25	1.08	0.869	1.17	0.933
BEN	1.06	1.1	0.986	0.865	0.186	0.534	0.57	0.447	0.54	0.587	0.756	0.553	0.393	0.624	0.659	0.594	0.486	0.521	0.556	0.621
CAL-12T	1.04	1.21	1.24	0.339	0.121	0.395	0.472	0.396	0.223	0.395	–	–	–	–	–	0.847	0.883	1.05	0.521	0.142
COR-L23	0.751	0.722	0.57	0.178	0.0573	0.792	0.946	0.737	0.252	0.154	0.478	0.404	0.488	0.235	0.194	0.562	0.507	0.42	0.166	0.18
COR-L 105	0.946	1.08	0.967	0.605	0.186	0.407	0.47	0.495	0.328	0.286	0.68	0.665	0.634	0.525	0.407	0.837	0.905	0.885	0.725	0.445
Calu-6	1.01	0.973	0.661	0.134	0.117	0.91	0.963	0.731	0.491	0.105	–	–	–	–	–	–	–	–	–	–
ChaGo-K-1	–	–	–	–	–	0.77	0.504	–	0.675	0.877	0.497	0.476	0.506	0.509	0.516	0.756	0.587	0.637	0.742	0.795
EBC-1	0.83	0.87	0.788	0.183	0.128	0.376	0.284	0.257	0.214	0.177	–	–	–	–	–	–	–	–	–	–
EKVX	0.856	1.09	0.941	0.675	0.167	0.426	0.427	0.507	0.41	0.355	0.343	–	0.313	0.368	0.324	0.747	0.592	0.765	0.725	0.649
EMC-BAC-2	0.748	0.717	0.662	0.521	0.154	0.539	0.559	0.521	0.522	0.51	0.95	0.977	–	0.98	0.541	0.437	0.358	–	0.446	0.405
EPLC-272H	0.901	1.07	0.79	0.513	0.244	0.338	0.324	0.315	0.273	0.343	0.368	0.349	0.43	0.314	0.303	0.567	0.561	0.399	0.175	0.176
H3255	0.753	0.735	0.772	0.593	0.182	0.476	0.491	0.572	0.456	0.434	0.595	0.581	–	0.589	0.623	0.975	0.719	–	0.823	0.858
HARA	0.858	0.85	0.974	0.121	0.0791	0.449	0.445	0.426	0.379	0.352	0.52	0.593	0.528	0.462	0.405	0.553	0.392	0.566	0.441	0.605
HCC-15	0.856	1.03	0.828	0.494	0.0833	0.737	0.658	0.744	0.686	0.471	0.678	0.568	0.509	0.615	0.434	0.875	0.815	0.83	0.747	0.786
HCC-44	0.784	0.879	0.675	0.281	0.0774	0.69	0.552	0.577	0.583	0.246	0.968	0.643	0.966	0.902	0.84	1.04	1.06	1.05	1.1	1.03
HCC-78	0.315	0.371	0.295	0.275	0.117	0.179	0.207	–	0.158	0.2	0.617	0.511	0.706	0.616	0.699	0.384	0.441	0.551	0.438	0.527
HCC-366	0.376	0.646	0.363	0.0741	0.0115	0.136	0.151	0.172	0.159	0.12	0.318	0.271	0.306	0.347	0.274	0.352	0.398	0.312	0.353	0.191

Cell Line	relative viability ([1]; first compound 0.08 µM)	relative viability ([1]; first compound 0.253 µM)	relative viability ([1]; first compound 0.8 µM)	relative viability ([1]; first compound 2.53 µM)	relative viability ([1]; first compound 8 µM)	relative viability (Obatoclax + Pictilisib; first compound 0.01 µM)	relative viability (Obatoclax + Pictilisib; first compound 0.03162 µM)	relative viability (Obatoclax + Pictilisib; first compound 0.1 µM)	relative viability (Obatoclax + Pictilisib; first compound 0.3162 µM)	relative viability (Obatoclax + Pictilisib; first compound 1 µM)	relative viability (Obatoclax + Decitabine; first compound 0.01 µM)	relative viability (Obatoclax + Decitabine; first compound 0.03162 µM)	relative viability (Obatoclax + Decitabine; first compound 0.1 µM)	relative viability (Obatoclax + Decitabine; first compound 0.3162 µM)	relative viability (Obatoclax + Decitabine; first compound 1 µM)	relative viability (Obatoclax + Vorinostat; first compound 0.01 µM)	relative viability (Obatoclax + Vorinostat; first compound 0.03162 µM)	relative viability (Obatoclax + Vorinostat; first compound 0.1 µM)	relative viability (Obatoclax + Vorinostat; first compound 0.3162 µM)	relative viability (Obatoclax + Vorinostat; first compound 1 µM)
HCC-827	0.934	0.984	1.02	0.874	0.475	1.04	0.948	0.953	0.916	1.04	0.332	0.273	0.337	0.223	0.355	0.879	0.726	0.711	0.25	0.82
HOP-62	0.937	1.09	0.931	0.942	0.164	0.649	0.803	0.449	0.761	0.757	0.257	0.177	0.206	0.277	0.214	0.573	0.575	0.639	0.741	0.403
IA-LM	0.737	0.799	0.782	0.461	0.221	0.345	0.326	0.315	0.113	0.0716	–	–	–	–	–	0.993	0.89	1.05	0.905	1.11
LC-2-ad	0.861	0.781	0.714	0.0868	0.0702	0.497	0.563	0.602	0.357	0.154	0.706	0.784	0.82	0.742	0.847	0.677	0.669	0.647	0.658	0.445
LCLC-97TM1	0.225	0.288	0.191	0.146	0.111	0.18	0.201	0.325	0.139	0.154	0.216	0.197	0.196	0.214	0.192	0.633	0.792	0.77	0.589	0.494
LCLC-103H	0.917	1.01	1.07	0.804	0.441	0.602	0.565	0.719	0.612	0.65	0.7	0.728	0.784	0.763	0.738	0.791	0.676	0.715	0.756	0.799
LK-2	1.1	0.668	0.966	0.605	0.211	0.566	0.639	0.655	0.502	0.581	0.365	0.242	0.335	0.268	0.395	0.3	0.247	0.253	0.296	0.411
LOU-NH91	0.68	0.816	0.762	0.61	0.404	0.541	0.503	0.505	0.469	0.533	0.743	0.833	0.728	0.758	0.606	0.982	0.889	0.709	0.885	0.65
LU99A	0.459	0.514	0.324	0.157	0.129	0.337	0.298	0.364	0.263	0.2	0.915	0.89	–	0.847	0.976	0.557	0.459	–	0.463	0.224
NCI-H522	–	–	–	–	–	–	–	–	–	–	0.708	0.642	0.607	0.747	0.608	0.891	0.794	0.793	0.967	0.973
NCI-H1299	1.06	1.08	1.04	1.1	0.605	0.74	0.937	0.637	0.447	0.129	–	–	–	–	–	–	–	–	–	–
NCI-H1563	0.896	0.893	0.782	0.555	0.392	0.615	0.639	0.644	0.655	0.634	–	–	–	–	–	–	–	–	–	–
NCI-H1648	–	–	–	–	–	–	–	–	–	–	0.594	0.421	0.829	0.447	0.39	0.557	0.479	0.739	0.357	0.822
NCI-H1650	–	–	–	–	–	0.572	0.749	0.571	0.412	0.315	0.457	0.352	0.47	0.268	0.267	0.494	0.661	0.61	0.417	0.301
NCI-H1703	0.302	0.32	0.205	0.128	0.0994	0.263	0.221	0.216	0.203	0.2	–	–	–	–	–	–	–	–	–	–
NCI-H1792	0.648	0.8	0.726	0.475	0.213	0.31	0.26	–	0.281	0.377	0.58	0.469	0.537	0.427	0.581	–	–	–	–	–
NCI-H2228	0.632	0.714	0.437	0.112	0.0706	0.278	0.419	0.384	0.294	0.174	–	–	–	–	–	0.564	0.83	0.859	0.654	0.164
NCI-H2342	–	–	–	–	–	–	–	–	–	–	0.724	0.782	0.758	0.732	0.812	0.767	0.717	0.859	0.874	0.958
SW 900	–	–	–	–	–	–	–	–	–	–	0.438	0.426	0.364	0.402	0.382	0.493	0.489	0.509	0.389	0.372
